Conditions: 101.33 kPa, Liquid

CCCC[N+]1(C)CCCC1.O=S(=O)([N-]S(=O)(=O)C(F)(F)F)C(F)(F)F
Conditions	mass density [kg/m3]
289 K	1404.3
291 K	1402.6
293 K	1401
295 K	1399.4
297.05 K	1397.8
299.05 K	1396.2
301.05 K	1394.6
303.1 K	1393.1
305.1 K	1391.5
307.1 K	1390
309.1 K	1388.5

Reference: the NIST ThermoML archive (doi:10.1021/je900298e)
